Reference: patent publication EP0235773A1, “Improved pesticide formulations” (Shell Agrar GmbH & Co. KG, priority 1986, dated 1987)
Where a name gives a salt, the structure may show the parent alone.

Experiments:
[1] = cited from earlier work
[2] = Approximate solubility of solutes in butyrolactone (BLO); assay type: physicochemical; details: solvent BLO; approximately 25-30°C
Experimental: In formulating the solutions of chlorflurenol and solvent, it was necessary to agitate the solution in order to dissolve the chlorflurenol in the BLO, M-Pyrol, or BLO/M-PYROL.
From tests conducted, the following approximate solubilities at temperatures of approximately 25-30°C. were determined.
Technical dicamba acid - 86.9% acid equivalent Technical sodium salt of dicamba acid - 76% acid equivalent Technical chlorflurenol methyl ester - 95-98% total methal esters

Row | SMILES | water solubility [1] | Solubility for acid Equivalent Concentration [2]
1 | COC(=O)C1(O)c2ccccc2-c2ccc(Cl)cc21 (stereo not drawn) [Technical chlorflurenol methy ester, chlorflurenol methyl ester] | 0.0018 grams/100 grams water | approximately 25%
2 | COc1c(Cl)ccc(Cl)c1C(=O)O [Technical sodium salt of dicamba] | – | Less than 1%
